Data taken from patent publication US20040122033A1, “Combination therapy for the treatment of obesity” (priority 2002, published 2004).
Like-named read-outs stand apart in the source and are kept apart here.

Legend:
[1] = system: wild type and MCH1R KO mice; assay: CB-1 inverse agonist - MCH1R knock out mouse study (2 hour and overnight food intake); format: in vivo; conditions: 5 mg/kg orally
Procedure: AM251 was given to wild type and MCH1R KO mice orally at 5 mg/kg. Two hour and overnight food intake were measured.

[2] = system: wild type, NPY KO mice, and AGRP-NPY double KO mice; assay: CB-1 inverse agonist - NPY knock out mouse study (overnight food intake); format: in vivo; conditions: 3 mg/kg orally
Procedure: AM25 1 was given to wild type, NPY KO Mice, and AGRP-NPY double KO mice orally at 3 mg/kg. Overnight food intake was measured.

[3] = in vivo; cited from earlier work
[4] = system: Wild type or MCH1R KO mice; conditions: for 2 hour food intake: 1 μg MT-II icv at onset of dark cycle, vs aCSF vehicle
Procedure: Wild type or MCH1R KO mice were implanted with intracerebroventricular (icv) cannulae for icv administration of compounds. One microgram of MT-II was given by icv injection per animal at the onset of dark cycle and food intake was measured 2 hours post-injection. Overnight body weight differences were also measured. Artificial cerebrospinal fluid (aCSF) was used as a vehicle to dissolve MT-II.

Q: What does the source list for `Cc1c(C(=O)NN2CCCCC2)nn(-c2ccc(Cl)cc2Cl)c1-c1ccc(I)cc1` [AM251]?
A: 2 hour food intake ([1]; MCH1R KO mice): significantly inhibited; overnight food intake ([1]; MCH1R KO mice, 5 mg/kg): inhibits; overnight food intake ([1]; MCH1R KO mice, listed as AM 251, 5 mg/kg): significantly inhibited; 2 hour food intake ([1]; wild type mice): significantly inhibited; overnight food intake ([1]; wild type mice, 5 mg/kg): inhibits; overnight food intake ([1]; wild type mice, listed as AM 251, 5 mg/kg): significantly inhibited; overnight food intake ([2]; AGRP-NPY double KO mice): significantly inhibits; overnight food intake ([2]; NPY KO mice): significantly inhibits; overnight food intake ([2]; wild type mice): significantly inhibits

Q: Which weight loss [3] does the source give for `CC1(C)O[C@@H]2[C@@H](CO[C@@]3(COS(N)(=O)=O)OC(C)(C)O[C@@H]23)O1` [Topiramate] here?
A: increase weight loss

Q: Which results are given for Melanotan-II [MT-II]?
A: overnight body weight compared to vehicle treated mice ([4]; MCH1R KO mice, 1 μg MT-II icv): reduced body weight; 2 hour food intake ([4]; MCH1R KO mice): significantly inhibited; decrease of overnight food intake ([4]; MCH-1R knock out mice, 1 μg MT-II icv, overnight): greater than 80%; decrease in food intake, MCH-1R knock out mice versus wild type mice ([4]; MT-II treated MCH-1R knock out mice compared with MT-II treated wild type mice, FIG. 1): significantly greater decrease in food intake; overnight decrease in bodyweight, MCH-1R knock out mice versus wild type mice ([4]; MT-II treated MCH-1R knock out mice compared with MT-II treated wild type mice, FIG. 2): greater overnight decrease in bodyweight; overnight body weight compared to vehicle treated mice ([4]; wild type mice, 1 μg MT-II icv): reduced body weight; 2 hour food intake ([4]; wild type mice): significantly inhibited
